According to article PMC12362431, “Kinetic Dissection of the Reaction of Human GDP-L-Fucose Synthase” (ACS Catalysis, 2025):
Where two headings read alike, the source gives them in different places.

Tests used:
wild-type GFS [1] = target: T1, wild-type GFS (Homo sapiens, UniProt Q13630); test: Steady-state initial-rate kinetics and primary KIE (NADPH consumption, absorbance at 340 nm); assay type: biochemical
T1 construct: made in house; host or cells: E. coli Rosetta 2(DE3)

[2] = target: apo GFS (ligand-free wild-type GFS) (Homo sapiens, UniProt Q13630); test: Fluorescence titration, equilibrium binding (quenching of intrinsic protein fluorescence); details: for Kd: apo GFS 0.40 μM, 10 mM Tris, 25 mM NaCl, pH 8.0, 25 °C
Chain of apo GFS (ligand-free wild-type GFS) (Q13630 8-321): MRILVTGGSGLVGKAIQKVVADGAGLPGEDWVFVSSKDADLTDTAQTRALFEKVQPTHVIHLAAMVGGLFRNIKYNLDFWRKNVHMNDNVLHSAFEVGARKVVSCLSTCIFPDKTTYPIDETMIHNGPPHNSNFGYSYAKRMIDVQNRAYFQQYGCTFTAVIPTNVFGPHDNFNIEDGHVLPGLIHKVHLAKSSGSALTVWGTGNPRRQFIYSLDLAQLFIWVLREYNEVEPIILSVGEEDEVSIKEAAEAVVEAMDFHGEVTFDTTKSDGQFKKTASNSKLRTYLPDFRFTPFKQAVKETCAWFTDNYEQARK

wild-type GFS [3] = target: T1, wild-type GFS; test: Global simulation fitting of mechanism b to transient stopped-flow curves; assay type: biochemical; details: release from the ternary product complex enzyme/NADP+/GDP-L-fucose
Protocol: Spectrofluorometric analysis of ligand binding
Fluorescence titrations of wild-type GFS in the binding of coenzyme, substrate and/or product were performed using a fluorescence spectrophotometer F-4500 (Hitachi, Ltd., Tokyo, Japan).
Emission spectra were recorded in the range 300–500 nm at 1200 nm/min with the excitation […]
25 mM NaCl, pH 8.0) without agitation (25 °C). […] The resulting fluorescence signals were plotted versus ligands concentrations and the data were fitted to a hyperbol ic equation (Eq. S6) to obtain the Kd value (Figure S8, S9; Table S3): […]
where F is the fluorescence emission, [L] is concentration of ligand, F1 is the initial and F2 is the final fluorescence signal, [E] is the enzyme subunit concentration. […]
the fluorescence measurements. […]
Standard errors for the fitted rate constants were estimated as standard deviations based on the variability observed during global fitting . The goodness of fit to the model was assessed by confidence contour analysis, in which all parameters, except for k-1, were well constrained by the data. […]

GFS complex with NADPH4 = target: T2, GFS complex with NADPH4 (Homo sapiens, UniProt Q13630); test: Stopped-flow transient kinetic analysis of binding of GDP-L-fucose (fluorescence quenching)
T2 construct: made in house; host or cells: E. coli Rosetta 2(DE3)
T2 sequence (Q13630 8-321, one chain of several): as the sequence (Q13630 8-321) above

[4] = target: enzyme/NADPH4 (GFS/NADPH4 complex) (Homo sapiens, UniProt Q13630); test: Fluorescence titration, equilibrium binding (quenching of intrinsic protein fluorescence)
Chain of enzyme/NADPH4 (GFS/NADPH4 complex) (Q13630 8-321, one chain of several): as the sequence (Q13630 8-321) above

[5] = target: enzyme/NADP+ (GFS/NADP+ complex) (Homo sapiens, UniProt Q13630); test: as above
Chain of enzyme/NADP+ (GFS/NADP+ complex) (Q13630 8-321, one chain of several): as the sequence (Q13630 8-321) above

GFS [6] = target: GFS; parameters: method as in not given; details: earlier studies of GFS, source organism not given; ref not given; cited from earlier work
GFS variant C116S = target: T3, GFS variant C116S (Homo sapiens, UniProt Q13630, C116S); test: Steady-state initial-rate kinetics and primary KIE (NADPH consumption, absorbance at 340 nm); assay type: biochemical; details: deuterated vs unlabeled substrate/coenzyme, pH 8.0, 37 °C, in 1/s
T3 construct: made in house; host or cells: E. coli Rosetta 2(DE3)
T3 sequence (Q13630 whole entry C116S): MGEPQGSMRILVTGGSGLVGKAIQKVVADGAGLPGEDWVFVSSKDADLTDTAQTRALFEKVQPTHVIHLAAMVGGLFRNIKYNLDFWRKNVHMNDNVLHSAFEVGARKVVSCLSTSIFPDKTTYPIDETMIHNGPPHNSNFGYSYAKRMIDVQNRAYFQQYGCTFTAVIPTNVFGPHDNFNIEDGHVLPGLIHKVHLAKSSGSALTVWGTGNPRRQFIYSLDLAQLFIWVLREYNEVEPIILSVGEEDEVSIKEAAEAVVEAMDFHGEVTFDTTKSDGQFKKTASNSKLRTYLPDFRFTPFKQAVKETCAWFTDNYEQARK

GFS [7] = tested on: GFS; parameters: method as in not given; details: earlier studies of GFS, source organism not given; ref not given; cited from earlier work; remark: listed apart in the source
GFS variant H186K = target: T4, GFS variant H186K (Homo sapiens, UniProt Q13630, H186K); test: Steady-state initial-rate kinetics and primary KIE (NADPH consumption, absorbance at 340 nm); assay type: biochemical
T4 construct: made in house; host or cells: E. coli Rosetta 2(DE3)
T4 sequence (Q13630 whole entry H186K): as the sequence (Q13630 whole entry C116S) above, with S116C, H186K counted along it

GFS variant Y143F = target: T5, GFS variant Y143F (Homo sapiens, UniProt Q13630, Y143F); test: as above; assay type: biochemical
T5 construct: made in house; host or cells: E. coli Rosetta 2(DE3)
T5 sequence (Q13630 whole entry Y143F): as the sequence (Q13630 whole entry C116S) above, with S116C, Y143F counted along it

[8] = nonlinear fit of kobs with eq S15
[9] = deuterated vs unlabeled substrate/coenzyme, pH 8.0, 37 °C, in 1/s
[10] = varied substrate 3, pH 8.0, 37 °C

T1 sequence (Q13630 8-321): as the sequence (Q13630 8-321) above

Compound `NC(=O)C1=CN([C@@H]2O[C@H](COP(=O)(O)OP(=O)(O)OC[C@H]3O[C@@H](n4cnc5c(N)ncnc54)[C@H](OP(=O)(O)O)[C@@H]3O)[C@@H](O)[C@H]2O)C=CC1` [NADPH] has a Km (wild-type GFS [1]; varied NADPH, substrate 3 100 μM, pH 8.0, 37 °C) of 0.75 ± 0.03 µM.

For `NC(=O)c1ccc[n+]([C@@H]2O[C@H](COP(=O)([O-])OP(=O)(O)OC[C@H]3O[C@@H](n4cnc5c(N)ncnc54)[C@H](OP(=O)(O)O)[C@@H]3O)[C@@H](O)[C@H]2O)c1` [NADP+], the Kd [2] was 8 ± 2 µM and the “rate constant for the release” value (wild-type GFS [3]) was 26 s^–1.

For `CC1OC(OP(=O)(O)OP(=O)(O)OCC2OC(n3cnc4c(=O)[nH]c(N)nc43)C(O)C2O)C(O)C(O)C1O` [1a, GDP-L-fucose], the koff (GFS complex with NADPH4; global simulation fit, lower bound only, read-out: koff (association step)) was at least 11 s⁻¹, the kon (GFS complex with NADPH4; global simulation fit, lower bound only, read-out: kon (association step)) was at least 2e+06 M⁻¹ s⁻¹ and the “k′1” value (GFS complex with NADPH4; global simulation fit, range 0.3–0.8 s^–1) was 0.6 s^–1. For the same compound, the “k′–1” value (GFS complex with NADPH4; global simulation fit, range 0.5–1.4 s^–1) was 0.9 s^–1, the Kd (GFS complex with NADPH4; global simulation fit, range 3–12 μM, read-out: Kd (two-step binding)) was 7 µM and the “k′1 (forward conformational change)” value (GFS complex with NADPH4; [8]) was 0.6 ± 0.1 s⁻¹. For the same compound, the “k′–1 (reverse conformational change, GDP-L-fucose release rate)” value (GFS complex with NADPH4; [8]) was 0.5 ± 0.1 s^–1, the Kd (GFS complex with NADPH4; nonlinear fit of kobs with eq S15, GFS 2.0 μM, NADPH4 15.0 μM, pH 8.0, 37 °C, read-out: Kd (encounter complex, two-step binding)) was 4 ± 2 µM and the Kd [4] was 1.1 ± 0.2 µM. For the same compound, the “tighter binding to enzyme-NADPH4 than to enzyme-NADP+” value ([4]; ratio of Kd values) was about 12 fold, the Kd [5] was 13 ± 4 µM and the “rate constant for the release” value (wild-type GFS [3]) was 12 s^–1. The Ki (GFS [6]) was 55.3 µM.

In the case of `Nc1nc2c(ncn2[C@@H]2O[C@H](COP(=O)(O)OP(=O)(O)O)[C@@H](O)[C@H]2O)c(=O)[nH]1` [GDP, guanosine 5′-diphosphate], the Ki (GFS [6]) is listed as 60.5 µM.

For `[2H][C@@H]1C=CN([C@@H]2O[C@H](COP(=O)(O)OP(=O)(O)OC[C@H]3O[C@@H](n4cnc5c(N)ncnc54)[C@H](OP(=O)(O)O)[C@@H]3O)[C@@H](O)[C@H]2O)C=C1C(N)=O` [[4S-^2H]-NADPH], the “kinetic isotope effect on kcat (Dkcat)” value (wild-type GFS [1]; [9]) was 1.03 ± 0.05, the “kinetic isotope effect on kcat/Km, Dkcat/Km^NADPH” value (wild-type GFS [1]; varied coenzyme, substrate 3 100 μM, pH 8.0, 37 °C) was 1.6 ± 0.2 and the “kinetic isotope effect on kcat/Km, Dkcat/Km^3” value (wild-type GFS [1]; [10]) was 1.4 ± 0.4. The “kinetic isotope effect on kcat (Dkcat)” value (GFS variant C116S) was 1.0 ± 0.2, the “KIE on the enzymatic rate” value (GFS [7]) was 1.4 and the “kinetic isotope effect on kcat (Dkcat)” value (GFS variant H186K; [9]) was 1.12 ± 0.08. For the same compound, the “kinetic isotope effect on kcat/Km, Dkcat/Km^3” value (GFS variant H186K; [10]) was 1.1 ± 0.5, the “kinetic isotope effect on kcat (Dkcat)” value (GFS variant Y143F; [9]) was 3.9 ± 0.3 and the “kinetic isotope effect on kcat/Km, Dkcat/Km^3” value (GFS variant Y143F; [10]) was 4 ± 1.

In the case of `NC(=O)C1=CN([C@@H]2O[C@H](COP(=O)(O)OP(=O)(O)OC[C@H]3O[C@@H](n4cnc5c(N)ncnc54)[C@H](OP(=O)(O)O)[C@@H]3O)[C@@H](O)[C@H]2O)CCC1` [NADPH4, 1″,4″,5″,6″-tetrahydro-NADPH], the Kd [2] is reported as 0.3 ± 0.1 µM and the “tighter binding to the free GFS than NADP+” value ([2]; ratio of Kd values) is reported as 27 fold.
